Source: patent publication US20260250318A1, “COMPOSITIONS AND METHODS FOR CROSSING THE BLOOD BRAIN BARRIER” (VOYAGER THERAPEUTICS, INC., priority 2022, published 2026)

Assays:
[1] = system: brains, heart, liver, muscle, and DRG of the NHPs; test: Maturation of TTM-001 and TTM-002 capsids, NGS enrichment in NHP tissues; format: in vivo; settings: relative to AAV9 control
Method in brief: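 Variants carry mutations within and flanking the loop IV peptide insert: positions 450–466 were triplet-randomized, while positions 449–466 received low-frequency point mutations. The combined pool went into two NHPs, and each peptide was scored by NGS enrichment ratio against AAV9.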

brain = test: Matured TTM-001 and TTM-002 variants, NGS enrichment in mouse brain; format: in vivo, mice; settings: relative to AAV9 control
[2] = NGS fold-enrichment of matured AAV capsid variants, NHP brain, RNA
[3] = NGS fold-enrichment of RNA, NHP brain
[4] = NGS fold-enrichment, DRG of NHPs
[5] = NGS fold-enrichment, NHP liver DNA
[6] = NGS fold-enrichment, NHP liver RNA
[7] = NGS fold-enrichment, NHP muscle
[8] = NGS fold-enrichment, RNA, brain of NHPs
[9] = NGS fold-enrichment, heart of NHPs
[10] = NGS fold-enrichment, liver DNA of NHPs
[11] = NGS fold-enrichment, liver RNA of NHPs
[12] = NGS fold-enrichment, muscle of NHPs
[13] = NGS fold-enrichment, brain of mice
[14] = NGS fold-enrichment, mouse brain

Row | Sequence | Fold Enrichment relative to AAV9, Brain (NHP) [1, 2] [fold] | Fold Enrichment relative to AAV9, DRG (NHP) ([1]; NHP DRG) [fold] | Fold Enrichment relative to AAV9, Heart (NHP) ([1]; NHP heart) [fold] | Fold Enrichment relative to AAV9, Liver DNA (NHP) ([1]; NHP liver, DNA) [fold] | Fold Enrichment relative to AAV9, Liver RNA (NHP) ([1]; NHP liver, RNA) [fold] | Fold Enrichment relative to AAV9, Muscle (NHP) ([1]; NHP muscle) [fold] | Fold Enrichment relative to AAV9, Brain (Mouse) (brain; mouse brain) [fold] | Fold Enrichment relative to AAV9, Brain (NHP) [1, 3] [fold] | Fold Enrichment relative to AAV9, DRG (NHP) [1, 4] [fold] | Fold Enrichment relative to AAV9, DRG (NHP) ([1]; NGS fold-enrichment, NHP DRG) [fold] | Fold Enrichment relative to AAV9, Heart (NHP) ([1]; NGS fold-enrichment, NHP heart) [fold] | Fold Enrichment relative to AAV9, Liver DNA (NHP) [1, 5] [fold] | Fold Enrichment relative to AAV9, Liver RNA (NHP) [1, 6] [fold] | Fold Enrichment relative to AAV9, Muscle (NHP) [1, 7] [fold] | Fold Enrichment relative to AAV9, Brain (NHP) [1, 8] [fold] | Fold Enrichment relative to AAV9, Heart (NHP) [1, 9] [fold] | Fold Enrichment relative to AAV9, Liver DNA (NHP) [1, 10] [fold] | Fold Enrichment relative to AAV9, Liver RNA (NHP) [1, 11] [fold] | Fold Enrichment relative to AAV9, Muscle (NHP) [1, 12] [fold] | Fold Enrichment relative to AAV9, Brain (Mouse) (brain; [14]) [fold] | further results
1 | KTGNGSGSPHSKAQIQQT | 52.809 | 0.000 | 0.000 | 0.012 | 0.000 | 0.000 | 98.291 |  |  |  |  |  |  |  |  |  |  |  |  |  | 
2 | KTIDGGGSPHSKAQNKQT |  |  |  |  |  |  |  | 85.019 | 0.000 | 0.000 | 0.000 | 0.477 | 0.000 | 0.000 | 85.019 | 0.000 | 0.477 | 0.000 | 0.000 | 55.517 | Fold Enrichment relative to AAV9, Brain (Mouse) (brain; [13]): 55.517 fold
3 | KTIDGHDSPHKSGQNQHA |  |  |  |  |  |  |  | 91.058 |  | 0.000 | 0.082 | 0.000 | 0.000 | 0.000 |  |  |  |  |  | 10.781 | 
4 | KTIDGHDSPHKSGRNQQI |  |  |  |  |  |  |  | 80.240 |  | 0.000 | 0.037 | 0.144 | 0.040 | 0.000 |  |  |  |  |  | 10.363 | 
5 | KTIDGSGSPHSKALNKQT | 58.992 | 0.000 | 0.267 | 0.056 | 0.000 | 0.000 | 74.626 |  |  |  |  |  |  |  |  |  |  |  |  |  | 
6 | KTIDGSGSPHSKAQNQQH |  |  |  |  |  |  |  | 79.090 | 0.000 | 0.000 | 0.000 | 0.049 | 0.136 | 0.000 | 79.090 | 0.000 | 0.049 | 0.136 | 0.000 | 57.914 | Fold Enrichment relative to AAV9, Brain (Mouse) (brain; [13]): 57.914 fold
7 | KTIDGSGSPHSKGQNRQT |  |  |  |  |  |  |  |  | 0.000 |  |  |  |  |  | 73.930 | 0.000 | 0.091 | 0.106 | 0.000 |  | Fold Enrichment relative to AAV9, Brain (Mouse) (brain; [13]): 63.626 fold
8 | KTIDGSGSPHSKSQNHQT | 51.307 | 0.000 | 0.000 | 0.269 | 0.000 | 0.000 | 63.174 |  |  |  |  |  |  |  |  |  |  |  |  |  | 
